Tests used:
[1] = test system: diffuse large B-cell lymphoma (DLBCL) cells; test: Growth inhibition (CellTiter-Glo) in DLBCL cells, including cells with induced resistance to PU-H71; assay type: cell-based, human; conditions: for Spectrum of sensitive DLBCLs: FIG. 1C, PU-H71-sensitive versus compound 32-sensitive DLBCL lines
Excerpt: (§1) Cell lines: MDA-MB-468 cells were obtained from the American Type Culture Collection. DLBCL cells were described in Cerchietti L C, et al. BCL6 repression of EP300 in human diffuse large B cell lymphoma cells provides a basis for rational combinatorial therapy. J Clin Invest. Dec. 1, 2010; 120(12): 4569-4582; and Cerchietti L C, et al. A purine scaffold Hsp90 inhibitor destabilizes BCL-6 and has specific antitumor activity in BCL-6-dependent B cell lymphomas. Nat Med. 2009 December; 15(12):1369-76. MDA-MB-468 cells were grown in DME/F12 with 10% FBS and 1% penicillin and streptomycin. OCI-LY1R cells were developed by continuous incubation of OCI-LY1 cells with suboptimal concentrations of PU-H71 (depicted below) with subsequent selection of resistant clones. OCI-LY1, OCI-LY1R and OCI-LY7 cells were cultured in IMDM supplemented with 20% FBS, 1% glutamax and 1% penicillin and streptomycin. OCI-LY3, FARAGE, HBL1, Karpas422, MD901, U2932, SU-DHL4, SU-DHL6, RCK8 and TMD8 cells were grown in RPMI with 10% FBS, 1% glutamax and 1% penicillin and streptomycin.
Growth inhibition: 5,000 cells per well were plated in black 96-well microtiter plates and treated next day with indicated compounds at 1/2 serial dilutions. The plate was incubated for 72h after which growth was measured using the CellTiter-Glo Luminescent Cell Viability Assay (Promega) according to manufacture's instructions. The percentage cell growth inhibition was calculated by comparing luminescence readings obtained from treated versus control cells, accounting for initial cell population. The luminescence signal in each well was measured using the Analyst GT microplate reader (Molecular Devices).

MOLM-13 cells = test: Caspase cleavage assay (Caspase3, 7 activation); assay type: cell-based; conditions: Homo sapiens, 16 h treatment, caspase substrate Z-DEVD-R110, read-out: c* Concentration at which 50% of the maximum signal was achieved (caspase activation)
Procedure, shortened: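 Cells (30,000/well, RPMI) treated 16 h with compound or DMSO in triplicate, then given buffer with 10 mM HEPES pH 7.5, 2 mM EDTA, 0.1% CHAPS and 25 μM Z-DEVD-R110. Fluorescence read once signal stabilized; results given as percentage increase in apoptotic cells versus DMSO-treated control.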

[2] = test system: MDA-MB-468 triple negative breast cancer cells; test: Western blot of anti-apoptotic protein complexes; assay type: cell-based; conditions: FIG. 1A, MDA-MB-468 cells, 24 h
Excerpt: as §1
Western blot: Cells were plated and treated next day with indicated drug concentrations for 24h. […] The chemiluminescent signal was detected using the Enhanced Chemiluminescence Detection System (Amersham Biosciences) according to the manufacturer's instructions.

CC(C)NCCCn1c(Sc2cc3c(cc2I)OCO3)nc2c(N)ncnc21 [PU-H71, reference compound]
Spectrum of sensitive DLBCLs [1]: does not overlap

CN1CCN(c2ncc(Sc3ccc(N)nc3)c(OCc3ccccc3)n2)CC1 [compound 32, 5-((4-(Benzyloxy)-2-(4-methylpiperazin-1-yl)pyrimidin-5-yl)thio)pyridin-2-amine]
EC50 (MOLM-13 cells): 200 to 400 nM | Activity in DLBCL cells with induced resistance to PU-H71 ([1]; FIG. 1B, DLBCL cells with induced resistance to Hsp90 inhibitor PU-H71): retains activity | Spectrum of sensitive DLBCLs [1]: does not overlap | Effect on Hsp70-regulated anti-apoptotic protein complexes [2]: effects reverted

C#CCN1CCN(c2ncc(Sc3ccc(C(N)=O)cc3)c(OCc3ccc(F)c(Cl)c3)n2)CC1 [compound 354, 4-((4-((3-Chloro-4-fluorobenzyl)oxy)-2-(4-(prop-2-yn-1-yl)piperazin-1-yl)pyrimidin-5-yl)thio)benzamide]
EC50 (MOLM-13 cells): < 200 nM

C#CCN1CCN(c2ncc(Sc3ccc(C(N)=O)c(C(F)(F)F)c3)c(OCc3cccc(I)c3)n2)CC1 [compound 357, 4-((4-((3-Iodobenzyl)oxy)-2-(4-(prop-2-yn-1-yl)piperazin-1-yl)pyrimidin-5-yl)thio)-2-(trifluoromethyl)benzamide]
EC50 (MOLM-13 cells): 200 to 400 nM

CN(C)[C@@H]1CCN(c2ncc(Sc3ccc(C(N)=O)cc3)c(OCc3cccc(F)c3)n2)C1 [compound 363, (R)-4-((2-(3-(Dimethylamino)pyrrolidin-1-yl)-4-((3-fluorobenzyl)oxy)pyrimidin-5-yl)thio)benzamide]
EC50 (MOLM-13 cells): 200 to 400 nM

CN(C)[C@@H]1CCN(c2ncc(Sc3ccc(C(N)=O)cc3)c(OCc3cccc(Cl)c3)n2)C1 [compound 365, (R)-4-((4-((3-Chlorobenzyl)oxy)-2-(3-(dimethylamino)pyrrolidin-1-yl)pyrimidin-5-yl)thio)benzamide]
EC50 (MOLM-13 cells): 200 to 400 nM

CN(C)[C@@H]1CCN(c2ncc(Sc3ccc(C(N)=O)cc3)c(OCc3cccc(Br)c3)n2)C1 [compound 367, (R)-4-((4-((3-Bromobenzyl)oxy)-2-(3-(dimethylamino)pyrrolidin-1-yl)pyrimidin-5-yl)thio)benzamide]
EC50 (MOLM-13 cells): 200 to 400 nM

CN(C)[C@@H]1CCN(c2ncc(Sc3ccc(C(N)=O)cc3)c(OCc3cccc(I)c3)n2)C1 [compound 369, (R)-4-((2-(3-(Dimethylamino)pyrrolidin-1-yl)-4-((3-iodobenzyl)oxy)pyrimidin-5-yl)thio)benzamide]
EC50 (MOLM-13 cells): 200 to 400 nM

COc1cccc(COc2nc(N3CC[C@@H](N(C)C)C3)ncc2Sc2ccc(N)nc2)c1 [compound 375, (R)-5-((2-(3-(Dimethylamino)pyrrolidin-1-yl)-4-((3-methoxybenzyl)oxy)pyrimidin-5-yl)thio)pyridin-2-amine]
EC50 (MOLM-13 cells): < 200 nM

CN(C)[C@@H]1CCN(c2ncc(Sc3ccc(N)nc3)c(OCc3cccc(Cl)c3)n2)C1 [compound 376, (R)-5-((4-((3-Chlorobenzyl)oxy)-2-(3-(dimethylamino)pyrrolidin-1-yl)pyrimidin-5-yl)thio)pyridin-2-amine]
EC50 (MOLM-13 cells): < 200 nM

NC(=O)c1ccc(Sc2cnc(N3CCN(CC#CCO)CC3)nc2OCc2cccc(Cl)c2)cc1 [compound 379, 4-((4-((3-Chlorobenzyl)oxy)-2-(4-(4-hydroxybut-2-yn-1-yl)piperazin-1-yl)pyrimidin-5-yl)thio)benzamide]
EC50 (MOLM-13 cells): < 200 nM
